Assay results as given in article PMC9460038, “Antigiardial Activity of Foeniculum vulgare Hexane Extract and Some of Its Constituents” (Plants, 2022).
Values after ≈ are worked out from the molar mass of the structure shown. Read-outs that look alike come from different tables or passages of the source.

Assays:
[1] = system: G. duodenalis trophozoites; experiment: Antigiardial activity, vial microassay (growth inhibition of trophozoites, 24 h); settings: for % Inhibition at 300 μg/mL: G. duodenalis trophozoites; for inhibition at 300 µg/mL / IC50: Giardia duodenalis; for inhibition at 300 µg/mL: read-out: % Inhibition at 300 μg/mL; for G. duodenalis IC50 (IC95%): trophozoites, Probit, 95% confidence limits in brackets
Protocol: G. duodenalis strain 0989: IMSS was used. G. duodenalis was cultured in TYI-S-33 media supplemented with bile, as previously described [26]. G. duodenalis trophozoites were sub-cultured three times a week. Parasites used in the assays to determine drug susceptibility were harvested when cultures reached the middle of their logarithmic growth phase.
The concentration of all standard drugs was adjusted to 10 mg/mL. Metronidazole (used as a positive control), and pure compounds were dissolved in (DMSO). All stock solutions were stored at –20 °C until use. Before use in the assays, serial two-fold dilutions of the stock solutions were made in basal TYI medium (without serum). Fifty micro liters of each solution was added into 1 mL glass screw-capped cylindrical vials with a conical interior (Wheaton vial). All vials were filled with 950 μL of a freshly prepared parasite suspension in TYI-S-33 medium plus 10 % bovine serum. G. duodenalis was tested at density of 2 × 10^5 trophozoites/mL. All vials were incubated at 36 °C for 24 h. The vials were then chilled on iced water for 20 min, and the number of trophozoites per milliliter in each tube were counted using a hemocytometer (Neubauer cell-counter chamber) [29]. The percentage of growth inhibition with respect to untreated controls was then determined.
All experiments were performed in triplicate and in at least three independent bioassays (n = 9 cultures for each analyzed compound). The data were analyzed using GraphPad Prism software version 5.0 (USA). The half-maximum inhibitory concentration (IC50) of each drug was calculated by Probit analysis and 95% confidence limits were calculated.

[2] = system: Vero cells; experiment: Cytotoxic activity on Vero cell line (Trypan blue, 24 h); type: cell-based; settings: for IC50: Chlorocebus sabaeus, read-out: Vero Cells IC50 (IC95%); for IC50 / Vero Cells IC50 (IC95%): 24 h; for Selectivity Index (SI): ratio of IC50 in Vero cells to IC50 in G. duodenalis
Protocol: Cytotoxicity assay was performed on Vero cell line (ATCC CCL-81), as previously described. Briefly, Vero cells were cultivated in Roswell Park Memorial Institute (RPMI) medium supplemented with 10% fetal bovine serum (FBS). […] Each compound was dissolved in dimethyl sulfoxide (DMSO) and sterilized by filtration, and brought to final concentrations of 487, 243.5, 121.75 and 60.875 μg/mL with RPMI medium supplemented with 10% FBS. The cell suspension was adjusted to 1 × 10^4 cells/mL with RPMI medium supplemented with 10% FBS. Cell suspension (200 μL) was placed into a 96-well plate and incubated at 37 °C in a 5% CO2 atmosphere for 24 h. Each compound solution was added to each well containing the Vero cells and incubated for 24 h. The assay was carried out in triplicate. The number of cells were determined in a Neubauer chamber, while the percentage of viable cells was measured with the Trypan blue staining method.
The SI is the ratio of the IC50 concentration in host cells (Vero cells) to that in parasite (G. duodenalis).

[3] = source not stated; cited from earlier work
[4] = system: Mycobacterium tuberculosis H37Rv; design: method as in PMID 22797778; settings: sensitive strain H37Rv; cited from earlier work
[5] = read-out: G. duodenalis IC50 (IC95%), trophozoites, 24 h, Probit, 95% confidence limits in brackets
[6] = Vero cells, Probit, 95% confidence limits in brackets

## CC(=O)OC1C2(C)CCC(C2)C1(C)C (stereo not shown) [Fenchylacetate]
[1]
  % Inhibition at 300 μg/mL: 38.5%

## Oc1cccc(O)c1 [1,3-Benzenediol]
[1]
  inhibition at 300 µg/mL: 56%
[1]; [5]
  IC50: 169 µg/mL (≈ 1530 µM)
[2]; [6]
  IC50: 438 µg/mL (≈ 3980 µM)
[2]
  Selectivity Index (SI): 2.5

## CC(C)=CCC[C@@H](C)CCO [(R)- (+)-β-Citronellol]
[1]
  % Inhibition at 300 μg/mL: 38%

## (R) (−)-Carvone
[1]
  % Inhibition at 300 μg/mL: 66%
  G. duodenalis IC50 (IC95%): 207.0 (162.2–267.3) μg/mL
[2]; [6]
  Vero Cells IC50 (IC95%): 350.7 (348.4–353.0) μg/mL

## CCCCCCCCCCC=O [Undecanal]
[1]
  inhibition at 300 µg/mL: 25%

## CCCCCCCC/C=C\CCCCCCCC(=O)O [Oleic acid]
[1]
  inhibition at 300 µg/mL: 24%

## C/C=C/c1ccc(OC)cc1 [Trans-anethol]
[1]
  % Inhibition at 300 μg/mL: 17%

## Cc1ccccc1C(C)C [o-Cymene]
[1]
  % Inhibition at 300 μg/mL: 30%

## Cc1ncc([N+](=O)[O-])n1CCO [Metronidazole, reference compound]
[1]
  inhibition at 300 µg/mL: 100%
[1]; [5]
  IC50: 0.5 µg/mL (≈ 2.92 µM)
[2]; [6]
  IC50: 83.5 µg/mL (≈ 488 µM)

## CCCCCC/C=C/C=C/C=O [Trans, trans-2,4-undecadienal, trans, trans-2,4-undecadienal]
[3]
  log P: 3.8
[4]
  MIC: 25 µg/mL (≈ 150 µM)
[1]
  inhibition at 300 µg/mL: 97%
  G. duodenalis IC50 (IC95%): 72.1 (57.7–90.1) μg/mL
[1]; [5]
  IC50: 72.1 µg/mL (≈ 434 µM)
[2]; [6]
  IC50: 589 µg/mL (≈ 3540 µM)
[2]
  Selectivity Index (SI): 8.1

## C=CCc1ccc(OC)cc1 [Estragole]
[1]
  inhibition at 300 µg/mL: 49%
[1]; read-out: G. duodenalis IC50 (IC95%)
  IC50: 150 µg/mL (≈ 1010 µM)
[2]; Vero
  IC50: 259 µg/mL (≈ 1750 µM)
[2]
  Selectivity Index (SI): 1.7

## CC1=CCC(C(C)C)=CC1 [γ-Terpinene]
[1]
  inhibition at 300 µg/mL: 24%

## C=C1[C@H]2CC[C@H](C2)C1(C)C [(1R,4S) (+)-Camphene]
[1]
  % Inhibition at 300 μg/mL: 61%
  G. duodenalis IC50 (IC95%): 181.1 (158.1–207.9) μg/mL
[2]; [6]
  Vero Cells IC50 (IC95%): 494.3 (492.1–496.4) μg/mL

## CC(C)[C@]12CC(=O)[C@H](C)[C@H]1C2 [(−)-α-Tujone]
[1]
  % Inhibition at 300 μg/mL: 14%

## COc1ccc(C=O)cc1 [p-Anisaldehyde]
[1]
  inhibition at 300 µg/mL: 67%
[1]; [5]
  IC50: 197 µg/mL (≈ 1450 µM)
[2]; [6]
  IC50: 541 µg/mL (≈ 3970 µM)
[2]
  Selectivity Index (SI): 2.7

## CC1(C)C(=O)[C@]2(C)CCC1C2 [(R) (−)-Fenchone]
[1]
  % Inhibition at 300 μg/mL: 6.5%

## CC(C)(O)C(C)(C)O [Pinacol]
[1]
  inhibition at 300 µg/mL: 2%

## CC1=CCC(=C(C)C)CC1 [Terpinolene]
[1]
  inhibition at 300 µg/mL: 30%

## CC1(C)C(=O)[C@@]2(C)CCC1C2 [(S) (+)-Fenchone]
[1]
  % Inhibition at 300 μg/mL: 16%
